Columns and labels:
Assay in all cases: biochemical
Parameters in all cases: KINOMEscan competition binding, DNA-tagged kinase against immobilised ligand, qPCR read-out
ABL2 = ABL2 (Homo sapiens, UniProt P42684); details: read-out: Percent Control
Procedure: (§1) The KINOMEscan^TM kinase assays[65] were performed by Eurofins DiscoverX Corporation. For each kinase, the assay relies on the ability of the tested compound to compete against an immobilised ligand for binding to the DNA-tagged kinase. RT-qPCR is then used to measure the quantity of kinase molecules bound to the immobilised ligand, which is decreased if the tested compound competed with the kinase-ligand interaction. An 11-point 3-fold serial dilution of IDX compound was prepared in 100% DMSO at 100× final test concentration and subsequently diluted to 1× in the assay. […]

AURKB = AURKB (Homo sapiens, UniProt Q96GD4); details: read-out: Percent Control
Procedure: as §1

CDK7 = CDK7 (Homo sapiens, UniProt P50613); details: read-out: Percent Control
Procedure: as §1

CSK = CSK (Homo sapiens, UniProt P41240); details: read-out: Percent Control
Procedure: as §1

EPHA7 = EPHA7 (Homo sapiens, UniProt Q15375); details: read-out: Percent Control
Procedure: as §1

FGFR1 = FGFR1 (Homo sapiens, UniProt P11362); details: read-out: Percent Control
Procedure: as §1

FLT1 = FLT1 (Homo sapiens, UniProt P17948); details: read-out: Percent Control
Procedure: as §1

FLT3-autoinhibited = FLT3-autoinhibited (Homo sapiens, UniProt P36888); details: read-out: Percent Control
Procedure: as §1

GRK7 = GRK7 (Homo sapiens, UniProt Q8WTQ7); details: read-out: Percent Control
Procedure: as §1

INSRR = INSRR (Homo sapiens, UniProt P14616); details: read-out: Percent Control
Procedure: as §1

IRAK1 = IRAK1 (Homo sapiens, UniProt P51617); details: read-out: Percent Control
Procedure: as §1

ITK = ITK (Homo sapiens, UniProt Q08881); details: read-out: Percent Control
Procedure: as §1

[1] = molecular target: T1, JAK1(JH1domain-catalytic) (Homo sapiens, UniProt P23458); details: read-out: Percent Control
T1 construct: JH1 domain catalytic
Procedure: as §1

MAP3K11 = MAP3K11 (Homo sapiens, UniProt Q16584); details: read-out: Percent Control
Procedure: as §1

MYO3A = MYO3A (Homo sapiens, UniProt Q8NEV4); details: read-out: Percent Control
Procedure: as §1

PLK1 = PLK1 (Homo sapiens, UniProt P53350); details: read-out: Percent Control
Procedure: as §1

PLK3 = PLK3 (Homo sapiens, UniProt Q9H4B4); details: read-out: Percent Control
Procedure: as §1

PRKACA = PRKACA (Homo sapiens, UniProt P17612); details: read-out: Percent Control
Procedure: as §1

SRMS = SRMS (Homo sapiens, UniProt Q9H3Y6); details: read-out: Percent Control
Procedure: as §1

TAOK1 = TAOK1 (Homo sapiens, UniProt Q7L7X3)
Procedure: as §1

Sequence of TAOK1 (Q7L7X3 whole entry): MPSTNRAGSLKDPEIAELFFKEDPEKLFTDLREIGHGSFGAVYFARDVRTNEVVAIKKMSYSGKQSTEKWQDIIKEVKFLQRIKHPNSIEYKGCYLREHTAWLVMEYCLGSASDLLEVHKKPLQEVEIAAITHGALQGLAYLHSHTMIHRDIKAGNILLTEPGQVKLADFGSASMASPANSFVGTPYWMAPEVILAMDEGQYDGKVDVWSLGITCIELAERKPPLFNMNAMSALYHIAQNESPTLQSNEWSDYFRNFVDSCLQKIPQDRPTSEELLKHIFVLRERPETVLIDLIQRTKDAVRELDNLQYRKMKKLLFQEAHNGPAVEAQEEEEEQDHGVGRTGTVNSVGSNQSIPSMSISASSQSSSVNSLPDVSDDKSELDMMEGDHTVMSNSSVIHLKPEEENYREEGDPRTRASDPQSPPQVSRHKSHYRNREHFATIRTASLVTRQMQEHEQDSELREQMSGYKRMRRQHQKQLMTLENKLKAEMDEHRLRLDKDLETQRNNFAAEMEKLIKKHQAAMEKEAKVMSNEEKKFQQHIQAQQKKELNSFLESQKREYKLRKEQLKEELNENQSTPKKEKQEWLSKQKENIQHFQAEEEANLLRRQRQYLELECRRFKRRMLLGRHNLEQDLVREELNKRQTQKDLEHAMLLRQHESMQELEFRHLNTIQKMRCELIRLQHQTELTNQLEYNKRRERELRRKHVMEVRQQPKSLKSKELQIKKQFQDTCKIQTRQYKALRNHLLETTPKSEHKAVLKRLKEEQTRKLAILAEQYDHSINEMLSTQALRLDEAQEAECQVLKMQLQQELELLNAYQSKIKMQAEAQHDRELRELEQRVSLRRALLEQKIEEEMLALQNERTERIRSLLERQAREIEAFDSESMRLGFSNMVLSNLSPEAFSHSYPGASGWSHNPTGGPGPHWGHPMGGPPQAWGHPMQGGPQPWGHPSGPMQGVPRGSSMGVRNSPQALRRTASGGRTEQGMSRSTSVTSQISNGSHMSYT
Sequence of FLT3-autoinhibited (P36888 whole entry): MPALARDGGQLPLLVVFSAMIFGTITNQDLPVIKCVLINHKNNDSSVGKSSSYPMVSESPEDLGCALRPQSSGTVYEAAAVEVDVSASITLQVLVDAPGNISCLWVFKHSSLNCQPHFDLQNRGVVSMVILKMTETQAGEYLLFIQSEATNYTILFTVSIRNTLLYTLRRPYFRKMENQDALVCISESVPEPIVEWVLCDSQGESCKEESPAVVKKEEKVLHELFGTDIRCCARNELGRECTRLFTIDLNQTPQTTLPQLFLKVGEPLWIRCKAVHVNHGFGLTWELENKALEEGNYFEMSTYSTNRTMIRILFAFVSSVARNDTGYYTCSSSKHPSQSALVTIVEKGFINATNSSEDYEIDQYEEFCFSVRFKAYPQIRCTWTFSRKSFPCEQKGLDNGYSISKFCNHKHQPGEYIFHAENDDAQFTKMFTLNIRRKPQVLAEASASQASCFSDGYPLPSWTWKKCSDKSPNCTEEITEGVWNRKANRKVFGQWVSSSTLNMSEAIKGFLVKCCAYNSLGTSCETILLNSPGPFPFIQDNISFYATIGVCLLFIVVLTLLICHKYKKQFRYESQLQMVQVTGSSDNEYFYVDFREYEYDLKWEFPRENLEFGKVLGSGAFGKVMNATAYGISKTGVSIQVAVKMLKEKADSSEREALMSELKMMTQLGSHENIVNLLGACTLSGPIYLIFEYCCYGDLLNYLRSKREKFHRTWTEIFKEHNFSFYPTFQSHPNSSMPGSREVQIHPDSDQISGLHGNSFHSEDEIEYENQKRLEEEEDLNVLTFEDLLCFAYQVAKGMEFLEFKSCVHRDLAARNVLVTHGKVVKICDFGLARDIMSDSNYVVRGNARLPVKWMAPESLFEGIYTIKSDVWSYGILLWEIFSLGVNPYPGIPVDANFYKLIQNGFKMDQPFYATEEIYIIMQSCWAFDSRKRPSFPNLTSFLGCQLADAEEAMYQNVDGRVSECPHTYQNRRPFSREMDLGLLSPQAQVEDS
Sequence of IRAK1 (P51617 whole entry): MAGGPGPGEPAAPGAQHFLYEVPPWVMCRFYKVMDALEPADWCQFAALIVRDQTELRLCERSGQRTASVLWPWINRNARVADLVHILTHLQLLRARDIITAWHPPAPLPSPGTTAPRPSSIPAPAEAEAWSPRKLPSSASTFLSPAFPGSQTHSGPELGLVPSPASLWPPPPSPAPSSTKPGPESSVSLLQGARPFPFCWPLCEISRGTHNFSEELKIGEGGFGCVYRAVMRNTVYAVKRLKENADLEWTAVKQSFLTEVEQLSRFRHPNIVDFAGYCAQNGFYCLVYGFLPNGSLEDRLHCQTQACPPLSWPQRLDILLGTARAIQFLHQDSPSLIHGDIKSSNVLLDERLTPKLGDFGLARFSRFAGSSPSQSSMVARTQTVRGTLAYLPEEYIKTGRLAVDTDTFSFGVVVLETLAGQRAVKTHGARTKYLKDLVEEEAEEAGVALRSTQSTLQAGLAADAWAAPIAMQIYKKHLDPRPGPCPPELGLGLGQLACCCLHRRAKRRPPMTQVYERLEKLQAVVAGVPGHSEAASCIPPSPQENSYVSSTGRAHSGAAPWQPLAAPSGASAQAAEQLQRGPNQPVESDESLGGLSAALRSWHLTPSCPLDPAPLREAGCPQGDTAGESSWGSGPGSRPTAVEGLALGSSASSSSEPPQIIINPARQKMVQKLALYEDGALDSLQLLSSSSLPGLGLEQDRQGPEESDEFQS
Sequence of GRK7 (Q8WTQ7 whole entry): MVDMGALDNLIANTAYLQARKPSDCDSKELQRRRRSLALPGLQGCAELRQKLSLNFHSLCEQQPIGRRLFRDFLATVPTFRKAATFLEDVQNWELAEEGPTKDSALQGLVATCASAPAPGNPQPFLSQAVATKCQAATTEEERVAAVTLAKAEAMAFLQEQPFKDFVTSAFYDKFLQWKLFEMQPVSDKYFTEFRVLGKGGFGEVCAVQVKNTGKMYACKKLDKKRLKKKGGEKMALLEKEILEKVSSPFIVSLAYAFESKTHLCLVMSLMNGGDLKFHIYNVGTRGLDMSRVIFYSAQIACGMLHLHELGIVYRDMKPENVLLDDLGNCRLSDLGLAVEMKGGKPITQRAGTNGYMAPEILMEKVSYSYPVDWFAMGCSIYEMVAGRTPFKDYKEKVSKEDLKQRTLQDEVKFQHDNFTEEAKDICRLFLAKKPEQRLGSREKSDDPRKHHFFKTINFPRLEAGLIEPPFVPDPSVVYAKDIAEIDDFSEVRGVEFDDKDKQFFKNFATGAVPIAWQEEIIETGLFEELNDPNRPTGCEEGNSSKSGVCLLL
Sequence of ITK (Q08881 whole entry): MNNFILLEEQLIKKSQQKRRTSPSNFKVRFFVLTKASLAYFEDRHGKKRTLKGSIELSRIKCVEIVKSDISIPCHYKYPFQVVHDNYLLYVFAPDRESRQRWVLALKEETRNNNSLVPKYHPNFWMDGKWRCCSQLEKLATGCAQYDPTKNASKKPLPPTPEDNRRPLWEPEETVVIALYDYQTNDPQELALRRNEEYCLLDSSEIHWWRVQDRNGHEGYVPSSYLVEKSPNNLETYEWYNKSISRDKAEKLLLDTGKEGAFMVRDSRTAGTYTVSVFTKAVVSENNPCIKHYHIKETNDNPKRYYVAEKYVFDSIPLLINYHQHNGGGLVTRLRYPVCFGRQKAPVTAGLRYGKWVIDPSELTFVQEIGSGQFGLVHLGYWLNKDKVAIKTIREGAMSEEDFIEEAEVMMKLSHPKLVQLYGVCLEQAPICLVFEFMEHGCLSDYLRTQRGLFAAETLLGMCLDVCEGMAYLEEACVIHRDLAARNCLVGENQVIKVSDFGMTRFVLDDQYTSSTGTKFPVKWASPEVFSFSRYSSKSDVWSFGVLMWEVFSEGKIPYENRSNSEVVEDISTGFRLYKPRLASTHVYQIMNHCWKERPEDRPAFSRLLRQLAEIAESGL
Sequence of MAP3K11 (Q16584 whole entry): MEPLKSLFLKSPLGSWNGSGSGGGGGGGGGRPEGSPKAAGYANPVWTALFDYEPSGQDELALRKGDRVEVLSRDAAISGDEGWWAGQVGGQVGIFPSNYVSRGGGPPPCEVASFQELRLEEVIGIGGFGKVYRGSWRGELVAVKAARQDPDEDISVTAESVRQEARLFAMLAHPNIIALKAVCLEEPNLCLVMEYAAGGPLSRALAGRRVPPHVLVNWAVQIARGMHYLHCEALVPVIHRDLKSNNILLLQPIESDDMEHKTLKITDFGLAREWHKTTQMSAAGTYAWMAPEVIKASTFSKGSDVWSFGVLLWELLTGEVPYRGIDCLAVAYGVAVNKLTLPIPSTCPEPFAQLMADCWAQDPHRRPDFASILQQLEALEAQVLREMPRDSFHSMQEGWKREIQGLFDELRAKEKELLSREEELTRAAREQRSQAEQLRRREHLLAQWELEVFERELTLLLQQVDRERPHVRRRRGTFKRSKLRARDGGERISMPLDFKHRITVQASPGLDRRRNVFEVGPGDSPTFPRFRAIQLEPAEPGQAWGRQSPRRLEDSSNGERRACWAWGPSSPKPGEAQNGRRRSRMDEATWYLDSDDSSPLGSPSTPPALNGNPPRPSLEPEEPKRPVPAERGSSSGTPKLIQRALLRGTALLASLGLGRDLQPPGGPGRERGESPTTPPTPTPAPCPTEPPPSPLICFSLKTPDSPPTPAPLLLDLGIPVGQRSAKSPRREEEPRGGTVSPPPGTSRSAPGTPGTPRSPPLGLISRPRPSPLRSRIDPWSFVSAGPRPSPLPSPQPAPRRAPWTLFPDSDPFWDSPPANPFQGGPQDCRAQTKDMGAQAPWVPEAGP
Sequence of AURKB (Q96GD4 whole entry): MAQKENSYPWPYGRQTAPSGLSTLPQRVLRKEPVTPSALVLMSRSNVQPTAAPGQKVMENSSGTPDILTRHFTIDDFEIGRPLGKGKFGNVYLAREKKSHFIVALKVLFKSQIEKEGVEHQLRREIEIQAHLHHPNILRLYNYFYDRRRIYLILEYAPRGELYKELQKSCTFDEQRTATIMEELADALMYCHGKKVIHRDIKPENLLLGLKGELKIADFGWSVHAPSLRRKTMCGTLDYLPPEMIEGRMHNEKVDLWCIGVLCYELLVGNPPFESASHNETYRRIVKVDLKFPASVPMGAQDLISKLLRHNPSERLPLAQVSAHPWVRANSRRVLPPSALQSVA

Structure (SMILES): Oc1ccc(C2=Cc3ccc(O)cc3OC2)cc1 [compound 1, idronoxil]
- remaining binding at 10 µM (ABL2): 79%
- remaining binding at 10 µM (AURKB): 12%
- remaining binding at 10 µM (CDK7): 67%
- remaining binding at 10 µM (CSK): 100%
- remaining binding at 10 µM (EPHA7): 96%
- remaining binding at 10 µM (FGFR1): 92%
- remaining binding at 10 µM (FLT1): 100%
- remaining binding at 10 µM (FLT3-autoinhibited): 51%
- remaining binding at 10 µM (GRK7): 100%
- remaining binding at 10 µM (INSRR): 94%
- remaining binding at 10 µM (IRAK1): 80%
- remaining binding at 10 µM (ITK): 97%
- remaining binding at 10 µM [1]: 93%
- remaining binding at 10 µM (MAP3K11): 63%
- remaining binding at 10 µM (MYO3A): 91%
- remaining binding at 10 µM (PLK1): 77%
- remaining binding at 10 µM (PLK3): 100%
- remaining binding at 10 µM (PRKACA): 78%
- remaining binding at 10 µM (SRMS): 68%
- Kd (TAOK1): 4.7 µM
- remaining binding at 10 µM (TAOK1; read-out: Percent Control): 16%

From article PMC10507085, “Pharmacological inhibition of TBK1/IKKε blunts immunopathology in a murine model of SARS-CoV-2 infection” (Nature Communications, 2023)
